Test results as given in PubChem BioAssay AID1259407 (Chemical Carcinogenesis Research Information System (CCRIS), 2018).
Active and inactive are the calls of the source. No rule for the calls is given here.

Tested on: CCRIS mutagenicity, Ames/micronucleus/aberration tests
Assay: CCRIS mutagenicity studies
[1] = Test System: AMES SALMONELLA TYPHIMURIUM, Strain/Indicator: TA98, Metabolic Activation: NONE, Method: STANDARD PLATE
[2] = Test System: AMES SALMONELLA TYPHIMURIUM, Strain/Indicator: TA100, Metabolic Activation: NONE, Method: STANDARD PLATE

Measured: mutagenic call

BrC(Br)Br
inactive: End Point: IN VITRO CHROMOSOMAL ABERRATIONS, Test System: CHO CELLS, Metabolic Activation: NONE inactive; negative | End Point: IN VITRO CHROMOSOMAL ABERRATIONS, Test System: CHO CELLS, Metabolic Activation: RAT, LIVER, S-9, AROCLOR 1254 inactive; negative | End Point: IN VIVO MICRONUCLEUS, Test System: BONE MARROW POLYCHROMATIC ERYTHROCYTES, Species: MOUSE, Strain/Sex: DDY/MALE, Route: IP inactive; negative | Test System: AMES SALMONELLA TYPHIMURIUM, Strain/Indicator: RSJ100, Metabolic Activation: RAT LIVER S-9, Method: PREINCUBATION inactive; negative | Test System: AMES SALMONELLA TYPHIMURIUM, Strain/Indicator: TA97, Metabolic Activation: HAMSTER, LIVER, S-9 (10% OR 30%), AROCLOR 1254, Method: PREINCUBATION inactive; negative | Test System: AMES SALMONELLA TYPHIMURIUM, Strain/Indicator: TA97, Metabolic Activation: NONE, Method: PREINCUBATION inactive; negative | Test System: AMES SALMONELLA TYPHIMURIUM, Strain/Indicator: TA97, Metabolic Activation: RAT, LIVER, S-9 (10% OR 30%), AROCLOR 1254, Method: PREINCUBATION inactive; negative | Test System: AMES SALMONELLA TYPHIMURIUM, Strain/Indicator: TA98, Metabolic Activation: HAMSTER, LIVER, S-9 (5% OR 10%), AROCLOR 1254, Method: PREINCUBATION inactive; negative | Test System: AMES SALMONELLA TYPHIMURIUM, Strain/Indicator: TA98, Metabolic Activation: HAMSTER, LIVER, S-9, AROCLOR 1254, Method: PREINCUBATION inactive; negative | [1] inactive; negative | Test System: AMES SALMONELLA TYPHIMURIUM, Strain/Indicator: TA98, Metabolic Activation: RAT, LIVER, S-9 (10% OR 30%), AROCLOR 1254, Method: PREINCUBATION inactive; negative | Test System: AMES SALMONELLA TYPHIMURIUM, Strain/Indicator: TA98, Metabolic Activation: RAT, LIVER, S-9, AROCLOR 1254, Method: PREINCUBATION inactive; negative | Test System: AMES SALMONELLA TYPHIMURIUM, Strain/Indicator: TA98, Metabolic Activation: RAT, LIVER, S-9, AROCLOR 1254, Method: STANDARD PLATE inactive; negative | Test System: AMES SALMONELLA TYPHIMURIUM, Strain/Indicator: TA100, Metabolic Activation: HAMSTER, LIVER, S-9 (10% OR 30%), AROCLOR 1254, Method: PREINCUBATION inactive; negative | Test System: AMES SALMONELLA TYPHIMURIUM, Strain/Indicator: TA100, Metabolic Activation: HAMSTER, LIVER, S-9, AROCLOR 1254, Method: PREINCUBATION inactive; negative | [2] inactive; negative | Test System: AMES SALMONELLA TYPHIMURIUM, Strain/Indicator: TA100, Metabolic Activation: RAT LIVER S-9, Method: PREINCUBATION inactive; negative | Test System: AMES SALMONELLA TYPHIMURIUM, Strain/Indicator: TA100, Metabolic Activation: RAT, LIVER, S-9 (10% OR 30%), AROCLOR 1254, Method: PREINCUBATION inactive; negative | Test System: AMES SALMONELLA TYPHIMURIUM, Strain/Indicator: TA100, Metabolic Activation: RAT, LIVER, S-9, AROCLOR 1254, Method: FLUCTUATION TEST inactive; negative | Test System: AMES SALMONELLA TYPHIMURIUM, Strain/Indicator: TA100, Metabolic Activation: RAT, LIVER, S-9, AROCLOR 1254, Method: PREINCUBATION inactive; negative | Test System: AMES SALMONELLA TYPHIMURIUM, Strain/Indicator: TA100, Metabolic Activation: RAT, LIVER, S-9, AROCLOR 1254, Method: STANDARD PLATE inactive; negative | Test System: AMES SALMONELLA TYPHIMURIUM, Strain/Indicator: TA1535, Metabolic Activation: HAMSTER, LIVER, S-9 (10% OR 30%), AROCLOR 1254, Method: PREINCUBATION inactive; negative | Test System: AMES SALMONELLA TYPHIMURIUM, Strain/Indicator: TA1535, Metabolic Activation: HAMSTER, LIVER, S-9, AROCLOR 1254, Method: PREINCUBATION inactive; negative | Test System: AMES SALMONELLA TYPHIMURIUM, Strain/Indicator: TA1535, Metabolic Activation: NONE, Method: PREINCUBATION inactive; negative | Test System: AMES SALMONELLA TYPHIMURIUM, Strain/Indicator: TA1535, Metabolic Activation: NONE, Method: STANDARD PLATE inactive; negative | Test System: AMES SALMONELLA TYPHIMURIUM, Strain/Indicator: TA1535, Metabolic Activation: RAT, LIVER, S-9 (10% OR 30%), AROCLOR 1254, Method: PREINCUBATION inactive; negative | Test System: AMES SALMONELLA TYPHIMURIUM, Strain/Indicator: TA1535, Metabolic Activation: RAT, LIVER, S-9, AROCLOR 1254, Method: PREINCUBATION inactive; negative | Test System: AMES SALMONELLA TYPHIMURIUM, Strain/Indicator: TA1535, Metabolic Activation: RAT, LIVER, S-9, AROCLOR 1254, Method: STANDARD PLATE inactive; negative | Test System: AMES SALMONELLA TYPHIMURIUM, Strain/Indicator: TA1537, Metabolic Activation: HAMSTER, LIVER, S-9 (10% OR 30%), AROCLOR 1254, Method: PREINCUBATION inactive; negative | Test System: AMES SALMONELLA TYPHIMURIUM, Strain/Indicator: TA1537, Metabolic Activation: HAMSTER, LIVER, S-9, AROCLOR 1254, Method: PREINCUBATION inactive; negative | Test System: AMES SALMONELLA TYPHIMURIUM, Strain/Indicator: TA1537, Metabolic Activation: NONE, Method: PREINCUBATION inactive; negative | Test System: AMES SALMONELLA TYPHIMURIUM, Strain/Indicator: TA1537, Metabolic Activation: NONE, Method: STANDARD PLATE inactive; negative | Test System: AMES SALMONELLA TYPHIMURIUM, Strain/Indicator: TA1537, Metabolic Activation: RAT, LIVER, S-9 (10% OR 30%), AROCLOR 1254, Method: PREINCUBATION inactive; negative | Test System: AMES SALMONELLA TYPHIMURIUM, Strain/Indicator: TA1537, Metabolic Activation: RAT, LIVER, S-9, AROCLOR 1254, Method: PREINCUBATION inactive; negative | Test System: AMES SALMONELLA TYPHIMURIUM, Strain/Indicator: TA1537, Metabolic Activation: RAT, LIVER, S-9, AROCLOR 1254, Method: STANDARD PLATE inactive; negative | Test System: UDS RAT HEPATOCYTES, Strain/Indicator: THY INCORP, Metabolic Activation: NONE, Method: AUTORADIOGRAPHY inactive; negative
active: Test System: AMES SALMONELLA TYPHIMURIUM, Strain/Indicator: RSJ100, Metabolic Activation: NONE, Method: PREINCUBATION active; positive | Test System: AMES SALMONELLA TYPHIMURIUM, Strain/Indicator: RSJ100, Metabolic Activation: NONE, Method: STANDARD PLATE active; positive | Test System: AMES SALMONELLA TYPHIMURIUM, Strain/Indicator: TA98, Metabolic Activation: RAT LIVER S-9, Method: PREINCUBATION active; positive | Test System: AMES SALMONELLA TYPHIMURIUM, Strain/Indicator: TA100, Metabolic Activation: NONE, Method: DESICCATOR active; positive | Test System: AMES SALMONELLA TYPHIMURIUM, Strain/Indicator: TA100, Metabolic Activation: NONE, Method: FLUCTUATION TEST active; positive | Test System: AMES SALMONELLA TYPHIMURIUM, Strain/Indicator: TA1535, Metabolic Activation: NONE, Method: DESICCATOR active; positive | Test System: MOUSE LYMPHOMA, Strain/Indicator: L5178Y (TK+/TK-), Metabolic Activation: NONE, Method: SUSPENSION/PLATE active; positive | Test System: MOUSE LYMPHOMA, Strain/Indicator: L5178Y (TK+/TK-), Metabolic Activation: RAT, LIVER, S-9, AROCLOR 1254, Method: SUSPENSION/PLATE active; positive

C1CN1c1nc(N2CC2)nc(N2CC2)n1
active: [1] active; positive | [2] active; positive | Test System: CHINESE HAMSTER V-79, Strain/Indicator: V-79/6-THIOGUANINE, Metabolic Activation: NONE, Method: FLASK ASSAY active; positive | Test System: E. COLI, Strain/Indicator: WP2 (HCR), Metabolic Activation: NONE, Method: STANDARD PLATE active; positive
